Measured values as given in US5556878A, “Δ^6,7 -taxols antineoplatic use and pharmaceutical compositions containing them” (The Upjohn Company, priority 1994, dated 1996).
Values after ≈ are worked out from the molar mass of the structure shown. Read-outs that look alike come from different tables or passages of the source.

How the values were obtained:
L1210 leukemia = L1210 leukemia cell proliferation inhibition (Table I); format: cell-based; settings: Mus musculus
Source text: The biological activity of the compounds of this invention has been further confirmed using well known procedures against L1210 leukemia and the results set forth in Table I. The results were obtained using standard well known procedure (Li, L. H.; Kuentzel, S. L.; Murch, L. L.; Pschigoga, L. M.; and W. C. Krueger, "Comparative biological and biochemical effects of nogalamycin and its analogs on L1210 leukemia," Cancer Res. 39:4816-4822 (1979)). The results are expressed as an IC50 which is the drug concentration required to inhibit cell proliferation to 50% of that of untreated control cells. Lower numbers indicated greater activity.

tubulin = assay: In vitro tubulin polymerization assay after Gaskin et al.; format: biochemical; settings: 20° C.; for induction of tubulin polymerization in vitro: compared with taxol
Source text: (§1) The biological activity of the 7-deoxy-7β,8β-methanotaxol compounds (Formula II) of the invention has been confirmed using well known procedures.
(§2) The biological activity of the 7-deoxy-7-halotaxol compounds (Formula III) of the invention has been confirmed using well known procedures.

[1] = system: A2780 (human ovarian carcinoma) cells; assay: Cytotoxicity in A2780 (human ovarian carcinoma) cells in culture (IC90); format: cell-based; settings: read-out: IC90 (90% growth inhibitory concentration)
Source text: as §2

[2] = system: L1210 mouse leukemia carcinoma cells; assay: Cytotoxicity in L1210 mouse leukemia carcinoma cells in culture (IC90); format: cell-based; settings: read-out: IC90 (90% growth inhibitory concentration)
Source text: as §1

[3] = L1210, drug concentration required to inhibit cell proliferation to 50% of untreated control cells, read-out: L1210 (IC50 μg/ml)
[4] = L1210, read-out: L1210 (IC50 μg/ml)

Row | SMILES | IC50 (L1210 leukemia; [3]) [µg/mL] | other results
1 | CC(=O)O[C@H]1C(=O)[C@]2(C)C=C[C@H]3OC[C@@]3(OC(C)=O)[C@H]2[C@H](OC(=O)c2ccccc2)[C@]2(O)C[C@H](OC(=O)[C@H](O)[C@@H](NC(=O)c3ccccc3)c3ccccc3)C(C)=C1C2(C)C [Compound 16A, 7-Deoxy-Δ^6,7-taxol] | 0.0042 (≈ 0.00502 µM) | 
2 | CC(=O)O[C@H]1C(=O)[C@]2(C)C(F)C[C@H]3OC[C@@]3(OC(C)=O)[C@H]2[C@H](OC(=O)c2ccccc2)[C@]2(O)C[C@H](OC(=O)[C@H](OC(=O)OCC(Cl)(Cl)Cl)[C@@H](NC(=O)OC(C)(C)C)c3ccccc3)C(C)=C1C2(C)C (stereo partly drawn) [Compound 13DA, N-Debenzoyl-N-(t-butyl)oxycarbonyl-2'-{[(2,2,2-trichloroethyl)oxy]carbonyl}-7-deoxy-7-fluorotaxol] | 0.015 (≈ 0.0146 µM) | 
3 | CC(=O)O[C@H]1C(=O)[C@]23C[C@H]2C[C@H]2OC[C@@]2(OC(C)=O)[C@H]3[C@H](OC(=O)c2ccccc2)[C@]2(O)C[C@H](OC(=O)[C@H](O)[C@@H](NC(=O)OC(C)(C)C)c3ccccc3)C(C)=C1C2(C)C [Compound 23, N-Debenzoyl-N-(t-butyl)oxycarbonyl-7-deoxy-7β,8β-methanotaxol] | 0.0046 (≈ 0.00553 µM) | 
4 | CC(=O)O[C@H]1C(=O)[C@]2(C)C=C[C@H]3OC[C@@]3(OC(C)=O)[C@H]2[C@H](OC(=O)c2ccccc2)[C@]2(O)C[C@H](OC(=O)[C@H](O)[C@@H](NC(=O)NC(C)(C)C)c3ccccc3)C(C)=C1C2(C)C [Compound 16F, 13-(N-t-Butylurea-β-phenyl-isoserinyl)-Δ^6,7-baccatin III] |  | IC50 (L1210 leukemia; [4]): 0.0032 µg/mL (≈ 0.00385 µM)
5 | CC(=O)O[C@H]1C(=O)[C@]2(C)C(F)C[C@H]3OC[C@@]3(OC(C)=O)[C@H]2[C@H](OC(=O)c2ccccc2)[C@]2(O)C[C@H](OC(=O)[C@H](O)[C@@H](NC(=O)c3ccccc3)c3ccccc3)C(C)=C1C2(C)C (stereo partly drawn) [Compound IIIb, 7-Deoxy-7-fluorotaxol] | 0.01 (≈ 0.0117 µM) | potency in tubulin polymerization assay relative to taxol (tubulin): approximately half as potent as taxol; induction of tubulin polymerization in vitro (tubulin): able to induce tubulin polymerization in vitro at 20 °C in a manner very similar to taxol; IC90 [1]: 0.016 µg/mL (≈ 0.0187 µM)
6 | CC(=O)O[C@H]1C(=O)[C@]2(C)C=C[C@H]3OC[C@@]3(OC(C)=O)[C@H]2[C@H](OC(=O)c2ccccc2)[C@]2(O)C[C@H](OC(=O)[C@H](O)[C@@H](NC(=O)OC(C)(C)C)c3ccccc3)C(C)=C1C2(C)C [Compound 16D, N-Debenzoyl-N-(t-butyl)oxycarbonyl-7-deoxy-Δ^6,7-taxol] |  | IC50 (L1210 leukemia; [4]): 0.0016 µg/mL (≈ 0.00192 µM)
7 | CC(=O)O[C@H]1C(=O)[C@]2(C)C(F)C[C@H]3OC[C@@]3(OC(C)=O)[C@H]2[C@H](OC(=O)c2ccccc2)[C@]2(O)C[C@H](OC(=O)[C@H](O)[C@@H](NC(=O)OC(C)(C)C)c3ccccc3)C(C)=C1C2(C)C (stereo partly drawn) [Compound 20, N-Debenzoyl-N-(t-butyl)oxycarbonyl-7-deoxy-7-fluorotaxol] | 0.0038 (≈ 0.00446 µM) | 
8 | CC(=O)O[C@H]1C(=O)[C@]2(C)C=C[C@H]3OC[C@@]3(OC(C)=O)[C@H]2[C@H](OC(=O)c2ccccc2)[C@]2(O)C[C@H](OC(=O)[C@H](OC(=O)OCC(Cl)(Cl)Cl)[C@@H](NC(=O)c3ccccc3)c3ccccc3)C(C)=C1C2(C)C [Compound 15AA, 2'-{[(2,2,2-Trichloroethyl)oxy]carbonyl)-7-deoxy-Δ^6,7-taxol] | 0.012 (≈ 0.0119 µM) | 
9 | CC(=O)O[C@H]1C(=O)[C@]23C[C@H]2C[C@H]2OC[C@@]2(OC(C)=O)[C@H]3[C@H](OC(=O)c2ccccc2)[C@]2(O)C[C@H](OC(=O)[C@H](OC(=O)OCC(Cl)(Cl)Cl)[C@@H](NC(=O)c3ccccc3)c3ccccc3)C(C)=C1C2(C)C [Compound 14AA, 2'-{[(2,2,2-Trichloroethyl)oxy]carbonyl}-7-deoxy-7β,8β-methanotaxol] | > 0.1 | 
10 | CC(=O)O[C@@]12CO[C@@H]1C[C@H](O)[C@@]1(C)C(=O)[C@H](O)C3=C(C)[C@@H](OC(=O)[C@H](O)[C@@H](NC(=O)OC(C)(C)C)c4ccccc4)C[C@@](O)([C@@H](OC(=O)c4ccccc4)[C@H]21)C3(C)C [Taxotere, reference compound] | 0.004 (≈ 0.00495 µM) | 
11 | CC(=O)O[C@H]1C(=O)[C@]2(C)C(F)C[C@H]3OC[C@@]3(OC(C)=O)[C@H]2[C@H](OC(=O)c2ccccc2)[C@]2(O)C[C@H](OC(=O)[C@H](OC(=O)OCC(Cl)(Cl)Cl)[C@@H](NC(=O)c3ccccc3)c3ccccc3)C(C)=C1C2(C)C (stereo partly drawn) [Compound 13AA, 2'-{[(2,2,2-Trichloroethyl)-oxy]carbonyl)-7-deoxy-7-fluorotaxol] | 0.054 (≈ 0.0524 µM) | 
12 | CC(=O)O[C@H]1C(=O)[C@]23C[C@H]2C[C@H]2OC[C@@]2(OC(C)=O)[C@H]3[C@H](OC(=O)c2ccccc2)[C@]2(O)C[C@H](OC(=O)[C@H](O)[C@@H](NC(=O)c3ccccc3)c3ccccc3)C(C)=C1C2(C)C [Compound IIb, 7-Deoxy-7β,8β-methanotaxol] | 0.012 (≈ 0.0144 µM) | induction of tubulin polymerization in vitro (tubulin): able to induce tubulin polymerization in vitro at 20 °C in a manner very similar to taxol; IC90 [2]: 0.025 µg/mL (≈ 0.0299 µM)
13 | CC(=O)O[C@H]1C(=O)[C@]23C[C@H]2C[C@H]2OC[C@@]2(OC(C)=O)[C@H]3[C@H](OC(=O)c2ccccc2)[C@]2(O)C[C@H](OC(=O)[C@H](OC(=O)OCC(Cl)(Cl)Cl)[C@@H](NC(=O)OC(C)(C)C)c3ccccc3)C(C)=C1C2(C)C [Compound 14DA, N-Debenzoyl-N-(t-butyl)oxycarbonyl-2'-{[(2,2,2-trichloroethyl)oxy]carbonyl}-7-deoxy-7β,8β-methanotaxol] | 0.012 (≈ 0.0119 µM) | 
14 | CC(=O)O[C@H]1C(=O)[C@@]2(C)[C@H]([C@H](OC(=O)c3ccccc3)[C@]3(O)C[C@H](OC(=O)[C@H](O)[C@@H](NC(=O)c4ccccc4)c4ccccc4)C(C)=C1C3(C)C)[C@]1(OC(C)=O)CO[C@@H]1C[C@@H]2O [Taxol] | 0.015 (≈ 0.0176 µM) | IC90 [2]: 0.06 µg/mL (≈ 0.0703 µM); IC90 [1]: 0.007 µg/mL (≈ 0.0082 µM)
